US8648066B2 (Exelixis, Inc., priority 2009, dated 2014)

Assays:
mTOR/GbL/Raptor (mTORC1) = mTOR/GbL/Raptor (mTORC1) (Homo sapiens, UniProt P42345); experiment: mTOR/GbL/Raptor (mTORC1) ELISA assay; format: biochemical; settings: phosphorylation of 4E-BP1; 0.2 nM mTORC1, 10 μM ATP; read-out: IC50 in this assay (mTORC1 ELISA)
How it was run: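 Human mTORC1 (0.2 nM) phosphorylated 50 nM His-tagged 4E-BP1 with 10 µM ATP in HEPES pH 7.2 containing 10 mM MnCl2, 120 min at ambient temperature. Substrate was captured on Ni-chelate plates; phospho-4E-BP1 was detected by primary antibody and HRP secondary with luminescence.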

PI3Kα = PI3Kα (Homo sapiens, UniProt P42336); experiment: PI3K biochemical assay (luciferase-luciferin ATP consumption); settings: 1.5 nM enzyme, 1 μM ATP, 10 μM PIP2; read-out: IC50 for PI3Kα in this assay
Procedure: PI3Kα activity is measured as the percent of ATP consumed following the kinase reaction using luciferase-luciferin-coupled chemiluminescence. Reactions were conducted in 384-well white, medium binding microtiter plates (Greiner). Kinase reactions were initiated by combining test compounds, ATP, substrate (PIP2), and kinase in a 20 μL volume in a buffer solution. The standard PI3Kalpha assay buffer is composed 50 mM Tris, pH 7.5, 1 mM EGTA, 10 mM MgCl2, 1 mM DTT and 0.03% CHAPS. The standard assay concentrations for enzyme, ATP, and substrate are 1.5 nM, 1 μM, and 10 μM, respectively. The reaction mixture was incubated at ambient temperature for approximately 2 h. Following the kinase reaction, a 10 μL aliquot of luciferase-luciferin mix (Promega Kinase-Glo) was added and the chemiluminescence signal measured using a Victor2 plate reader (Perkin Elmer). Total ATP consumption was limited to 40-60% and IC50 values of control compounds correlate well with literature references. Substituting PI3Kα with PI3Kβ, PI3Kγ, or PI3Kδ, the inhibitory activity of the compounds for the other isoforms of I3K were measured.

Chain of PI3Kα (P42336 whole entry, species assumed): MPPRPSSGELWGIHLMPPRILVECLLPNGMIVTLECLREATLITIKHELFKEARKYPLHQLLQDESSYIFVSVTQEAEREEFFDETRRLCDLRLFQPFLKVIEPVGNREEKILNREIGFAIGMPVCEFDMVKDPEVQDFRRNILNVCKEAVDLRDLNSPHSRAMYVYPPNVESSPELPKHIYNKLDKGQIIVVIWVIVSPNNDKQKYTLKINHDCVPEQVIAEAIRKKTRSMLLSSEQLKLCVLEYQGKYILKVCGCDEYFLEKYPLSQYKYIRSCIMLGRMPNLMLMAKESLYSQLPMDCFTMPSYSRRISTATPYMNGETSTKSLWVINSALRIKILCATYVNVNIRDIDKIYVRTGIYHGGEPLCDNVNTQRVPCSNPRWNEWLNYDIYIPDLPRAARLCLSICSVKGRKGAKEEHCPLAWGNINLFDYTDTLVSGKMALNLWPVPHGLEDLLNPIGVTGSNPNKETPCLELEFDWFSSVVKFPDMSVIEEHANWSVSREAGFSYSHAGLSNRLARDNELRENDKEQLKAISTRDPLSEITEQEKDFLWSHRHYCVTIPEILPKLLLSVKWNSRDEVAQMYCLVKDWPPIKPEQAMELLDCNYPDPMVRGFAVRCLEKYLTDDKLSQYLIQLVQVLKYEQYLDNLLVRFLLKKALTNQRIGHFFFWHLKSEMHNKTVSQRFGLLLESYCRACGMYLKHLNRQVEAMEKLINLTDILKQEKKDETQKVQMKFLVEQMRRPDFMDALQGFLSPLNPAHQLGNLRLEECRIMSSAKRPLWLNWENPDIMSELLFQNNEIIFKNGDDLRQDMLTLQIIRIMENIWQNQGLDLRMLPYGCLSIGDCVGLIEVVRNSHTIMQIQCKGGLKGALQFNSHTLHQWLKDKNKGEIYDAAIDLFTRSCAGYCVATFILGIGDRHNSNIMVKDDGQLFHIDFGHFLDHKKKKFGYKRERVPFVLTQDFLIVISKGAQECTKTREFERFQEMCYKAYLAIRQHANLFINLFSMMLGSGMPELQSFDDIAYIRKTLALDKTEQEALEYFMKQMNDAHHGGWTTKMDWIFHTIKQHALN
Chain of PI3Kα (P27986 whole entry partner, species assumed): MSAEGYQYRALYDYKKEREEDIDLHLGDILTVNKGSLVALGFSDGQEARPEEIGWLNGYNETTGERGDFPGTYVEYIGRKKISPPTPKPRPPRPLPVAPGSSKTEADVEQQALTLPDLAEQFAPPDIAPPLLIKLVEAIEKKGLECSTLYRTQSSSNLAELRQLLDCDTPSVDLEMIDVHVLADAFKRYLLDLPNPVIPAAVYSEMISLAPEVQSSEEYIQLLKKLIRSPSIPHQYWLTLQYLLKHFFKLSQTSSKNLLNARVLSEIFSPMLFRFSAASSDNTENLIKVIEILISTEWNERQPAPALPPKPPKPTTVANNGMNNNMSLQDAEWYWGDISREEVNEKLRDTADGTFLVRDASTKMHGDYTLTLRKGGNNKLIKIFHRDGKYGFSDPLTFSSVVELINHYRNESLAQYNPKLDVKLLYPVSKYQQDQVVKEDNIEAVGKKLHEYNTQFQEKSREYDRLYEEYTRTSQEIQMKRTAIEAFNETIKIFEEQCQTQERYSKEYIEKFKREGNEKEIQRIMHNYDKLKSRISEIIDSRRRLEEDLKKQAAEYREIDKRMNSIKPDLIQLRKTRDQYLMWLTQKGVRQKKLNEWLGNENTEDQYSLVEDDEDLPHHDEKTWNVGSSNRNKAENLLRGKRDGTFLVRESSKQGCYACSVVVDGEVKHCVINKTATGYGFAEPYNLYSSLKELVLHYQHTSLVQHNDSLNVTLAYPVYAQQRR

Compound	IC50 (mTOR/GbL/Raptor (mTORC1))	IC50 (PI3Kα)
c1ccc(-c2nc(N3CCOc4ccc(-c5ccc6nc[nH]c6c5)cc4C3)c3ccccc3n2)cc1 [Example 232, 7-(1H-benzimidazol-6-yl)-4-(2-phenylquinazolin-4-yl)-2,3,4,5-tetrahydro-1,4-benzoxazepine]	≥ 2 µM	1 to 2 µM
Cc1nc2ccc(-c3ccc4c(c3)CN(c3ncnc5[nH]ncc35)CCO4)cc2[nH]1 [Example 52, 7-(2-methyl-1H-benzimidazol-6-yl)-4-(1H-pyrazolo[3,4-d]pyrimidin-4-yl)-2,3,4,5-tetrahydro-1,4-benzoxazepine]	1 to 2 µM	≥ 2 µM
c1ccc2c(N3CCOc4ccc(-c5ccsc5)cc4C3)ccnc2c1 [Example 204, 4-quinolin-4-yl-7-(3-thienyl)-2,3,4,5-tetrahydro-1,4-benzoxazepine]	≥ 2 µM	1 to 2 µM

Further lines, results first:

IC50 (mTOR/GbL/Raptor (mTORC1))	IC50 (PI3Kα)	Compound
0.25 to 1 µM	≥ 2 µM	Cc1nc2ncc(-c3ccc4c(c3)CN(c3ncnc5c3ccn5C)CCO4)cc2[nH]1 [Example 557, 7-(2-methyl-1H-imidazo[4,5-b]pyridin-6-yl)-4-(7-methyl-7H-pyrrolo[2,3-d]pyrimidin-4-yl)-2,3,4,5-tetrahydro-1,4-benzoxazepine]
0.25 to 1 µM	1 to 2 µM	Cc1ncc(S(=O)(=O)N2CCOCC2)c(N2CCOc3ccc(-c4cnc5nc(C)[nH]c5c4)cc3C2)n1 [Example 561, 7-(2-methyl-1H-imidazo[4,5-b]pyridin-6-yl)-4-[2-methyl-5-(morpholin-4-ylsulfonyl)pyrimidin-4-yl]-2,3,4,5-tetrahydro-1,4-benzoxazepine]
≥ 2 µM	1 to 2 µM	CN(C)Cc1nc2c(c(N3CCOc4ccc(-c5cccc(C(N)=O)c5)cc4C3)n1)CC(C)(C)CC2 [Example 433, 3-(4-{2-[(dimethylamino)methyl]-6,6-dimethyl-5,6,7,8-tetrahydroquinazolin-4-yl}-2,3,4,5-tetrahydro-1,4-benzoxazepin-7-yl)benzamide]
